# Source: patent US7129258B2, “Substituted benzoxazoles as estrogenic agents” (priority 2001, dated 2006)
# “And” between values parts separate entries of the source, which are not always exact repeats. Identical values can stand only once. Marks after values point to notes of the source that are not given here.
# Legend:
# [1] = system: HLA-B27 rats; assay: HLA rat test procedure for inflammatory bowel disease (stool score 3 = diarrhea, 2 = soft stool, 1 = normal stool; colon histology); format: in vivo
# [2] = system: ovariectomized Sprague-Dawley rats (proximal tibia); assay: Bone mineral density in the ovariectomized rat; format: in vivo; conditions: 5 weeks
# [3] = system: Lewis rats, Freund's Adjuvant-Complete induced arthritis; assay: Lewis rat adjuvant-induced arthritis, treatment test procedure; format: in vivo; conditions: Treatment protocol, s.c. daily, begun Day 8 after adjuvant injection
# [4] = system: Sexually immature Sprague-Dawley rats (uterine weight); assay: Rat uterotrophic test procedure (Procedure 1); format: in vivo; conditions: 0.06 μg/rat s.c., days 19-21, alone
# [5] = system: morphine-addicted rats; assay: Rat hot flush test procedure (tail skin temperature after naloxone); format: in vivo; conditions: 0.3 mg/kg
# Source text: Rat Hot Flush Test Procedure
# The effect of test compounds on hot flushes can be evaluated in a standard pharmacological test procedure which measures the ability of a test compound to blunt the increase in tail skin temperature which occurs as morphine-addicted rats are acutely withdrawn from the drug using naloxone [Merchenthaler, et al., Maturitas 30: 307–16 (1998)]. It can also be used to detect estrogen receptor antagonist activity by co-dosing test compound with the reference estrogen. The following data were obtained from representative compounds of the invention (Table (7))
# [6] = system: casein kinase II mRNA in mammary fat pad; assay: Mammary end bud test procedure (rat mammotrophic assay); format: in vivo
# Protocol: Evaluation in the Mammary End Bud Test Procedure
# Estrogens are required for full ductal elongation and branching of the mammary ducts, and the subsequent development of lobulo-alveolar end buds under the influence of progesterone. In this test procedure, the mammotrophic activity of selected compounds of the invention was evaluated according to the following standard pharmacological test procedure. Twenty-eight day old Sprague-Dawley rats (Taconic Farms) were ovariectomized and rested for nine days. Animals were housed under a 12-hour light/dark cycle, fed a casein-based Purina Laboratory Rodent Diet 5K96 (Purina, Richmond, Ind.) and allowed free access to water. […] The following results were obtained for representative compounds of the invention (Table (8)).
# [7] = system: Sexually immature 129 SvE mice (uterine weight); assay: Mouse uterotrophic test procedure (Procedure 2); format: in vivo; conditions: 50 mg/kg s.c., days 22-25
# [8] = system: Lewis rats, Freund's Adjuvant-Complete induced arthritis; assay: Lewis rat adjuvant-induced arthritis, inhibition test procedure; format: in vivo; conditions: Inhibition protocol, s.c. daily from Day 1
# [9] = system: human endometrial tissue implanted into ovariectomized athymic nude mice; assay: Endometriosis test procedure; format: in vivo, mouse; conditions: 10 mg/kg oral daily
# Protocol: Evaluation in an Endometriosis Standard Pharmacologic Test Procedure This procedure is slightly modified from a published method [Bruner-Tran. et al., Journal of Clinical Investigation 99: 2851–2857. (1997)]. […] Lesions are allowed to establish for at least 10 days, then oral daily dosing begins and continues for at least 15 days. It should be noted that all mice have visible lesions at the start of dosing. At necropsy the number of mice with lesions is determined as well as the lesions per mouse.
# [10] = Study B colon histology, oral 4 weeks, 10 mg/kg days 1–14 then 20 mg/kg, mean ± SD
# [11] = Study C colon histology, oral 7 weeks, 10 mg/kg days 1–18 then 20 mg/kg, mean ± SD
# [12] = Study C colon histology, oral 7 weeks, 10 mg/kg days 1–24 then 20 mg/kg, mean ± SD
smiles,measurement,setting,value
"C=Cc1cc(O)cc2nc(-c3ccc(O)cc3F)oc12 [Example 25, 2-(2-Fluoro-4-hydroxyphenyl)-7-vinyl-1,3-benzoxazol-5-ol]",Fibrosis (0–2),[1]; [10],0.31 ± .13
same,Inflammation (0–3),[1]; [10],1.50 ± 0.35
same,Lesion depth (0–2),[1]; [10],0.44 ± 0.24
same,Ulceration (0–2),[1]; [10],0.44 ± 0.24
"Oc1cc(Br)c2oc(-c3ccc(O)c(F)c3)nc2c1 [Example 21, 7-Bromo-2-(3-fluoro-4-hydroxyphenyl)-1,3-benzoxazol-5-ol]",Fibrosis (0–2),[1]; [11],0.56 ± 0.32
same,Lesion depth (0–2),[1]; [11],0.75 ± 0.50
same,Ulceration (0–2),"[1]; Study C colon histology, oral 7 weeks, 10 mg/kg then 20 mg/kg, mean ± SD",0.81 ± 0.47
same,scores on all disease parameters vs vehicle-treated rats (in words),"[1]; Study C, oral, 10 mg/kg then 20 mg/kg","not statistically significant, were lower"
same,Total Bone Mineral Density (mean ± SEM),[2]; 10 mg/kg s.c.,501.40 ± 11.97 mg/mL
same,Trabecular Bone Mineral Density (mean ± SEM),[2]; 10 mg/kg s.c.,312.34 ± 19.73 mg/mL
"C=C(Br)c1cc(O)cc2nc(-c3ccc(O)cc3F)oc12 [Example 32, 7-(1-Bromovinyl)-2-(2-fluoro-4-hydroxyphenyl)-1,3-benzoxazol-5-ol]",Joint inflammation score (maximal score per day 12),[3]; Day 1,11.33
same,Joint inflammation score (maximal score per day 12),[3]; Day 2,10.83
same,Joint inflammation score (maximal score per day 12),[3]; Day 3,9.33
same,Joint inflammation score (maximal score per day 12),[3]; Day 4,8.00
same,Joint inflammation score (maximal score per day 12),[3]; Day 5,5.83
same,Joint inflammation score (maximal score per day 12),[3]; Day 6,3.33
same,Joint inflammation score (maximal score per day 12),[3]; Day 7,3.00
same,Joint inflammation score (maximal score per day 12),[3]; Day 8,2.50
same,Joint inflammation score (maximal score per day 12),[3]; Day 9,2.50
same,Joint inflammation score (maximal score per day 12),[3]; Day 10,2.50
same,Joint inflammation score (maximal score per day 12),[3]; Day 11,2.50
same,Joint inflammation score (maximal score per day 12),[3]; Day 12,2.50
same,Joint inflammation score (maximal score per day 12),[3]; Day 13,2.50
same,Joint inflammation score (maximal score per day 12),[3]; Day 14,2.50
same,Joint inflammation score (maximal score per day 12),[3]; Day 15,2.00
same,Joint inflammation score (maximal score per day 12),[3]; Day 16,1.33
same,Joint inflammation score (maximal score per day 12),[3]; Day 17,1.00
"C#C[C@]1(O)CC[C@H]2[C@@H]3CCc4cc(O)ccc4[C@H]3CC[C@@]21C [17α-ethinyl, 17β-estradiol, 17α-ethinyl-17β-estradiol]",mean uterine weight ± SEM,[4],104.7 ± 5.4 mg and 85.5 ± 3.1 mg
same,Temperature change 15 minutes after naloxone injection (mean ± SEM),[5],2.12 ± 1.14
"C=Cc1cc(O)cc2nc(-c3ccc(O)cc3)oc12 [Example 27, 2-(4-Hydroxyphenyl)-7-vinyl-1,3-benzoxazol-5-ol]",Joint inflammation score (maximal score per day 12),[3]; Day 8,5.00
same,Joint inflammation score (maximal score per day 12),[3]; Day 15,2.00
same,Joint inflammation score (maximal score per day 12),[3]; Day 16,2.00
same,Joint inflammation score (maximal score per day 12),[3]; Day 17,1.50
C[C@]12CC[C@@H]3c4ccc(O)cc4CC[C@H]3[C@@H]1CC[C@@H]2O [17β-estradiol],Casein kinase II mRNA/18 S rRNA (mean ± SEM),[6]; 0.1 mg/kg s.c. + Progesterone (30 mg/kg),39.0 ± 5.36
same,mean uterine weight ± SEM,[7],41.9 ± 2.9 mg and 40.0 ± 2.0 mg and 35.6 ± 4.4 mg and 40.5 ± 5.84 mg and 42.9 ± 4.8 mg and 41.7 ± 3.6 mg
same,Total Bone Mineral Density (mean ± SEM),[2]; 2 μg/rat s.c.,639.49 ± 14.47 mg/mL
same,Trabecular Bone Mineral Density (mean ± SEM),[2]; 2 μg/rat s.c.,453.28 ± 24.93 mg/mL
"C=Cc1cc(O)cc2nc(-c3ccc(O)c(F)c3)oc12 [Example 24, 2-(3-Fluoro-4-hydroxyphenyl)-7-vinyl-1,3-benzoxazol-5-ol]",Joint inflammation score (maximal score per day 12),[3]; Day 4,9.50
same,Joint inflammation score (maximal score per day 12),[3]; Day 5,8.00
same,Joint inflammation score (maximal score per day 12),[3]; Day 6,7.00
same,Joint inflammation score (maximal score per day 12),[3]; Day 9,3.50
same,Joint inflammation score (maximal score per day 12),[3]; Day 17,2.00
same,Joint inflammation score (maximal score per day 12),[8]; Day 1,0.00
same,Joint inflammation score (maximal score per day 12),[8]; Day 2,1.00
same,Joint inflammation score (maximal score per day 12),[8]; Day 3,4.50
same,Joint inflammation score (maximal score per day 12),[8]; Day 15,3.00
same,Joint inflammation score (maximal score per day 12),[8]; Day 17,1.50
same,Stool quality (in words),"[1]; Study A, 50 mg/kg s.c. once per day",improved
same,Fibrosis (0–2),[1]; [12],0*
same,Inflammation (0–3),[1]; [12],0.69 ± 0.24
same,Lesion depth (0–2),[1]; [12],0*
same,Total score,[1]; [12],0.69 ± 0.24
same,Ulceration (0–2),[1]; [12],0*
same,"total disease score, intestinal histology (in words)","[1]; Study C, oral, 10 mg/kg days 1–24 then 20 mg/kg",significantly reduced
same,"measurements of tissue injury, colon histology (in words)","[1]; composite of two subcutaneous dosing studies, including Study A",effective in reducing several measurements of tissue injury
same,Casein kinase II mRNA/18 S rRNA (mean ± SEM),[6]; 20 mg/kg s.c. + Progesterone (30 mg/kg),3.98 ± 0.79
same,lesions at necropsy compared with mice dosed with vehicle,[9]; evaluated three times,fewer lesions
same,lesions found per animal (mice with lesions),[9]; Study 1,one
same,mice with lesion regression,[9]; Study 1,four of six
same,mice with any lesions at necropsy,"[9]; Study 1, all mice had lesions at start of dosing",two of six
